Holding throughout (type): binding
For assay [1], the target named is T1, human adenosine A1 receptor (hA1R) (Homo sapiens, UniProt P30542).
T1 construct: Steve Hill (University of Nottingham, UK); host or cells: CHO cells stably expressing hA1R; membrane preparation
T1 sequence (P30542 1-326): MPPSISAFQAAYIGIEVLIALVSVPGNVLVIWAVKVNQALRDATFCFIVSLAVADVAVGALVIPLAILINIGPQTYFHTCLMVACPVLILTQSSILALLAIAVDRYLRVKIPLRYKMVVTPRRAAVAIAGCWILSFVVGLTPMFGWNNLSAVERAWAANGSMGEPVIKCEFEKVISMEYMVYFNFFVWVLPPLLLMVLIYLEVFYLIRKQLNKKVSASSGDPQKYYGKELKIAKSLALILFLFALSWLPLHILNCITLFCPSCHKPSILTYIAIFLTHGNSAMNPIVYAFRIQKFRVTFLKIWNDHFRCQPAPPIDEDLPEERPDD
The experiment in a line: Competition association with [3H]-DPCPX, SPA technology. As to conditions: 28 °C, 1 mM GTP present for LUF5834, CCPA, NECA; for SPA RT: 1/k off. How it is done:
(§1) The binding kinetics of unlabeled ligands was quantified using the competition association assay based on the theoretical framework by Motulsky and Mahan.
The membrane-bead mixture was prepared as described under “Radioligand displacement experiments.” Once the membrane-bead mixture was added to the wells of an Isoplate-96 Microplate, measurements of radioligand bound to the receptor were started immediately and continued every 30 s for 2 h, using the 2450 MicroBeta^2 Plate Counter.

In assay [2] the target is T1, human adenosine A1 receptor (hA1R). The experiment in a line: Competition association with [3H]-DPCPX, filtration assay. As to conditions: 28 °C, 1 mM GTP present for LUF5834, CCPA, NECA; for Filtration assay RT: 1/k off. How it is done: as §1
The competition association assay was initiated by adding membrane aliquots (5 μg per well) at different time points for a total of 2 h in the absence or presence of competing ligand.

Assay [3] has the same target. The experiment in a line: Radioligand displacement of [3H]-DPCPX, filtration assay. The settings on record: CHO-hA1R membranes, one-state model. (In general: In a radioligand displacement assay an active substance lowers the binding of a labelled ligand.)
Procedure: (§2) Non-specific binding (NSB) was determined in the presence of 100 μM CPA. Each condition was measured in duplicate, and at least three individual experiments were performed.
Membrane aliquots containing 5 μg protein were incubated together with the radioligand and competing ligands in a total volume of 100 μL assay buffer in a 96-well plate. After 1 h incubation at room temperature, the incubation was terminated by rapid vacuum filtration to separate the bound and free radioligand through 96-well GF/B filter plates using a PerkinElmer Filtermate-harvester (Perkin Elmer, Groningen, the Netherlands). Filters were subsequently washed three times with ice-cold wash buffer (50 mM Tris-HCl [pH 7.4], supplemented with 5 mM MgCl2). After 30 min of dehydration of the filter plate at 50 °C, the filter-bound radioactivity was determined by scintillation spectrometry using the 2450 MicroBeta^2 Plate Counter. The binding values were recorded in both counts per minute (CPM) and disintegrations per minute (DPM).
For assay [4] the target is unchanged. The experiment in a line: Radioligand displacement of [3H]-DPCPX, SPA technology. The settings on record: CHO-hA1R membranes, one-state model.
Procedure: as §2
A mixture of 5 μg protein membrane and 1 mg SPA bead was pre-coupled in a shaker (Vibrax VXR, IKA) in a volume of 50 μL of assay buffer at room temperature for 30 min. Then, together with the radioligand and competing ligands, the membrane-bead mixture was dispatched in an Isoplate-96 Microplate (Perkin Elmer, Groningen, the Netherlands), in a final reaction volume of 100 μL. The plate was incubated for 1 h inside the counting chamber of a 2450 MicroBeta^2 Plate Counter (Perkin Elmer, Groningen, the Netherlands) at the ambient temperature of 28 °C. The binding values were recorded in corrected counts per minute (CCPM).

As usually defined, the Ki is a dissociation constant, usually derived from enzyme kinetics or from competition with a known ligand. Low values mean higher affinity, high ones lower affinity.

Take `CCCn1c(=O)c2[nH]c(C3CCCC3)nc2n(CCC)c1=O` [DPCPX, 1,3-Dipropyl-8-cyclopentyl-xanthine]: the “SPA RT” value in assay [1] turned out to be 2.0 ± 0.1 min. Further, the “Filtration assay RT” value in assay [2] worked out at 3.7 ± 0.4 min.

As for `OC[C@H]1O[C@@H](n2cnc3c(NC4CCCC4)nc(Cl)nc32)[C@H](O)[C@@H]1O` [CCPA, 2-chloro-N^6-cyclopentyladenosine], in assay [1], the “SPA RT” value was found to be 1.4 ± 0.1 min. In assay [2], the “Filtration assay RT” value is recorded as 0.68 ± 0.01 min.

`CCCn1c(=O)c2[nH]c(C3CCCC3)nc2n(CCCOC(=O)c2ccc(S(=O)(=O)F)cc2)c1=O` [FSCPX, 8-cyclopentyl-3-N-[3-((3-(4-fluorosulphonyl)benzoyl)-oxy)-propyl]-1-N-propyl-xanthine]: in assay [1], the “SPA RT” value is 156 ± 31 min. The “Filtration assay RT” value in assay [2] is 167 ± 56 min.

Turning to `N#Cc1c(N)nc(SCc2ncc[nH]2)c(C#N)c1-c1ccc(O)cc1` [LUF5834], in assay [1], the “SPA RT” value came to 2.0 ± 0.1 min. Moreover, in assay [1] ([…] [3H]-DPCPX), the “SPA k off (k4)” value was found to be 0.00833 ± 0.00083 s⁻¹ and the “SPA k on (k3)” value stood at 2.17e+06 ± 830000 M⁻¹ s⁻¹. The Kd in assay [1] (k off/k on, read-out: SPA Kinetic K D) is 3.9 ± 1.5 nM. The “Filtration assay RT” value in assay [2] is 4.4 ± 0.5 min. In assay [2] ([…] [3H]-DPCPX), the “Filtration assay k off (k4)” value worked out at 0.00383 ± 0.0005 s⁻¹ and the “Filtration assay k on (k3)” value stood at 1.03e+06 ± 100000 M⁻¹ s⁻¹. In addition, the Kd in assay [2] (k off/k on, read-out: Filtration assay Kinetic K D) is 3.7 ± 0.5 nM. This compound also displayed a Ki in assay [3] of 4.3 ± 0.6 nM. In assay [4], this compound came in with an inhibition constant (Ki) of 6.2 ± 0.5 nM.

Values taken from paper PMC4749533, “Scintillation proximity assay (SPA) as a new approach to determine a ligand’s kinetic profile. A case in point for the adenosine A1 receptor” (Purinergic Signalling, 2015).
